Results as given in US20230096663A1, “FARNESOID X RECEPTOR MODULATING COMPOUNDS AND METHODS OF USING THE SAME” (Inorbit Therapeutics AB, priority 2020, published 2023).

What was measured:
[1] = biological target: T1, Human FXR receptor (NR1H4) (Homo sapiens, UniProt Q96RI1); assay: Human Farnesoid X Receptor (NR1H4, FXR) reporter assay; type: cell-based
T1 sequence (Q96RI1 1-486): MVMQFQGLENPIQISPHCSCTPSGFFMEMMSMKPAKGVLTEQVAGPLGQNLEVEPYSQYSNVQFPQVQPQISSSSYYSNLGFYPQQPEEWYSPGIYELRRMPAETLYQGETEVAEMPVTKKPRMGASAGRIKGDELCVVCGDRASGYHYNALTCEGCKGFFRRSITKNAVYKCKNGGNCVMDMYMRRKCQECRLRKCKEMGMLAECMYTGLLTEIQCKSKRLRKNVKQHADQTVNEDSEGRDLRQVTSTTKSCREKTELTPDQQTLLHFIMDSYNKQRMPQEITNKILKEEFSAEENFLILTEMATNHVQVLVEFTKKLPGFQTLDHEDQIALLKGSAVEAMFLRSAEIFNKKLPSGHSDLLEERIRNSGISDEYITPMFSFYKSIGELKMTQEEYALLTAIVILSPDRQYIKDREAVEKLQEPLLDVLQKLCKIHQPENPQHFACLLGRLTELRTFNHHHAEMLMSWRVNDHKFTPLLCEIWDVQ
From the text: Determination of a ligand mediated Gal4 promoter driven transactivation to quantify ligand binding mediated activation of FXR. A FXR Reporter Assay kit was purchased from Indigo Bioscience (#IB00601-32) to determine the potency and efficacy of compounds that can induce FXR activation. The nuclear receptor assay system utilizes non-human mammalian cells engineered to provide constitutive high level expression of Human FXR receptor (NR1H4), a ligand-dependent transcription factor. The reporter cells include luciferase reporter gene functionality linked to an FXR-response promoter. Quantifying changes in luciferase expression in the treated reporter cells provides a sensitive surrogate measure of the changes in FXR activity. […] Luminescence intensity of the reaction is quantified using a luminometer, and is reported in terms of Relative Light Units (RLU's). […] After incubation, the media was carefully removed, Luciferase detection solution was added and the plate read in a Luminometer. The data was calculated as per kit instructions, with increases in luminescence being directly proportional to increases in compound agonist activity.

[2] = system: FXR related genes (BSEP, SHP) in primary human hepatocytes; assay: Gene expression in human primary hepatocytes (BSEP, SHP); type: cell-based; details: 24 hours incubation
Procedure: The test compound was dissolved in buffer to give a 10 mM stock solution. The compound was serially diluted to the desired concentrations and then incubated with human primary hepatocytes for 24 hours at 37° C. in a CO2 incubator. After incubation, the media was removed and the RNA harvested using the Trizol-CHCl3 method and quantified using Nano drop. The RNA was then Reverse Transcribed to cDNA using a superscript vilo cDNA synthesis kit. The cDNA with respective Taqman primers, master mix are then amplified using quantitative RT-PCR system. […] The compounds of examples 2 and 3 upregulate FXR related and disease relevant genes on incubation with primary human hepatocytes. […] It is a uni-directional, ATP-dependent efflux transporter that plays an important role in the elimination of bile salts from the hepatocyte into the bile canaliculi for export into the gastrointestinal tract. FXR also induces the expression of small heterodimer partner (SHP) which controls a complex set of genes in multiple metabolic pathways. It reduces the expression of CYP7A1, a liver-specific enzyme that catalyzes the first and rate-limiting step in one of the two pathways for bile acid biosynthesis.

[3] = Metabolic identification in dog hepatocytes; type: in vitro ADME; details: up to 120 min
Procedure: A 10 mM stock of test compound from Example 2 (sodium 2-(3-((5-cyclopropyl-3-(2-(trifluoromethoxy)phenyl)isoxazol-4-yl)methoxy)-8-azabicyclo[3.2.1]octan-8-yl)-4-fluorobenzo[d]thiazole-6-sulfinate) was prepared in DMSO. 20 μM of final working stock was then prepared by diluting 4 μL of 10 mM stock in 1996 μL of Krebs-Hensleit buffer. 200 μL of hepatocyte cell suspension (2×10^6 cells/mL) was added to TPP 48 well plate and preincubated for 30 min @ 37° C. in incubator. 200 μL of 20 μM working stock of test compound was added to the cell suspension and incubated in an incubator on vibramax at a shaking speed of 500 rpm. For the 0 min sample, 25 μL of hepatocyte suspension was precipitated with 200 μL of acetonitrile and 25 μL of 20 μM test compound was added. The reaction was stopped at 15, 30, 60, 90, 120 min by precipitating 50 μL of incubation mixture with 200 μL of acetonitrile. The samples were vortexed for 5 min at 1200 rpm and centrifuged at 4000 rpm for 10 min. The supernatant was separated, diluted 2 fold with water and analysed using a HPLC (Shimadzu SIL HTS) and mass spectrometer (5500 Qtrap). Acetonitrile and 0.1% formic acid in Milli-q-water were used as the mobile phase, using a column of either Waters Xbridge C18, 250×3.0 mm, 5.0μ particle size or Phenomnex kinetex 5μ EVO C18 100 A, 50×4.6 mm 5.0μ particle size. […]

[4] = system: HFHC fed male C57BL/6 mice; assay: In-vivo efficacy in high fat high cholesterol diet (HFHC) fed male C57BL/6 mice; details: oral, 3 mg/kg BID, 3 mg/kg QD and 10 mg/kg BID, after 28 days
Procedure: C57BL/6J male mice were purchased at the age of 8 weeks. After an acclimation period of 1 week, animals were maintained on high fat high cholesterol diet (Research diets) with 60% kcal from fat plus 0.5% (w/w) extra cholesterol (Research diet, D02051401) for a period of 4 weeks. Age matched control animals (n=6) were maintained on normal chow. Mice were dosed with vehicle, test compounds and GW4064 morning (7.00 AM) and evening (5:00 PM) from day 0 to 27. At 28th day, animals were dosed at 7:00 AM and kept on fasting for next 4 hours before blood and tissues collection. Plasma samples separated from collected blood were stored at −20° C. immediately for estimation analysis. The samples were analyzed using the Siemens Dimension RxL Max Clinical chemistry analyzer.
Right liver lobe was used for the test compounds exposure, triglyceride and cholesterol estimation. Liver tissues were dissected, weighed and snap frozen and stored at −80° C. for further analysis of hepatic triglyceride, cholesterol and compound exposure. In brief, stored tissues were thawed to room temperature and triglycerides were extracted by homogenizing 25 mg of liver tissues in 1 ml of 5% Triton X100 (Lot No. 61K01741-Sigma Aldrich) in water. Homogenized tissues were slowly heated to 80° C. in water bath for 5 minutes. The samples were cooled down and again heated to solubilize all the triglycerides into solution. The samples were centrifuged for 5 minutes at 4000 RPM and supernatant was collected for quantification^3 using commercially available kit from ERBA (Lot No. B061832).
Homogenized samples were centrifuge at 13000 g for 10 minutes to remove insoluble material. The organic phase was separated into new tube and air dried at 50° C. to remove chloroform. Thereafter, samples were vacuumed for 30 minutes to remove residue organic solvent. Dried lipids were dissolved in 200 μL of cholesterol assay buffer (provided with Sigma cholesterol assay kit Lot No. B2J210603V), sonicated for 20 minutes and vortexed until mixture was homogenous as mentioned in kit protocol. Samples were diluted with cholesterol assay buffer at (1:10) ratio to fit in standard curve and finally 50 μL of diluted samples were used for the assay.
Compound levels were also measured in the plasma and liver to understand its distribution profile.

With `O=S([O-])c1cc(F)c2nc(N3[C@@H]4CC[C@H]3C[C@@H](OCc3c(-c5ccccc5OC(F)(F)F)noc3C3CC3)C4)sc2c1.[Na+]` [Example 2, Sodium 2-(3-((5-cyclopropyl-3-(2-(trifluoromethoxy)phenyl)isoxazol-4-yl)methoxy)-8-azabicyclo[3.2.1]octan-8-yl)-4-fluorobenzo[d]thiazole-6-sulfinate] the EC50 ([1]; Human FXR (NR1H4) luciferase reporter assay, 22-24 h) was 460 nM, the Efficacy ([1]; normalized to GW4064 set as 100%) was 119% and the “Expression of FXR related and disease relevant genes (BSEP, SHP)” value [2] was “upregulate”. The Acyl-Glucuronide [3] was “No”, the “Cholesterol levels in the liver” value [4] was “reductions” and the “Cholesterol levels in the plasma” value [4] was “reductions”. For the same compound, the Liver triglycerides [4] was “reductions”.
